Patent US20250025451A1, “TREATMENT OF CANCER WITH KDM4 INHIBITORS” (Celgene Corporation, priority 2021, published 2025)

What was measured:
[1] = tested on: GXA-3036 gastric adenocarcinoma patient-derived xenograft; experiment: in vivo efficacy, GXA-3036 gastric adenocarcinoma patient-derived xenograft model; conditions: GXA-3036 PDX; for Median Tumor Volume Diff. (Day 35): Day 35 minus Day 0; for Median Tumor Volume Diff. (Day 38): Day 38 minus Day 0
Procedure: (§1) The therapeutic in vivo efficacy of Compound 1 was evaluated in SU60 colorectal cancer, KYSE-150 esophageal cancer, COH70 triple-negative breast cancer, GXA-3036 gastric adenocarcinoma and OCI-LY19 Diffuse Large B-Cell Non-Hodgkin's Lymphoma xenograft models. In all studies, efficacy was determined based on percent tumor growth inhibition (TGI), differences in mean tumor growth, and statistical assessment of differences in net tumor volume distributions on the day of TGI analysis between control and treated animals. Tolerability was assessed based on differences in mean body weights between control and treated animals over the course of the study.
The in vivo efficacy and tolerability of Compound 1, administered orally as the lysine salt form suspended in a vehicle comprised of 5% 2-hydroxypropyl-beta-cyclodextrin (HPBCD) in 50 mM phosphate buffer (pH 7.4), were evaluated in female immunodeficient NMRI-Foxn1nu mice using the subcutaneous gastric adenocarcinoma GXA-3036, a moderately differentiated intestinal type (based on Lauren's criteria) PDX model of Asian origin. Each mouse was inoculated subcutaneously in the right flank with a GXA-3036 tumor fragment (3 to 4 mm edge length). When the average tumor size reached ˜109 mm3, test animals were randomized into 5 groups consisting of 8 mice per group and treatments were initiated. Control mice received 5% HPBCD in 50 mM phosphate buffer (pH 7.4) vehicle PO 3 on/4 off. Treated mice received the Compound 1 lysine salt form in vehicle at 5, 15, or 50 mg/kg on the same schedule or at 22.5 mg/kg 2 on/5 off. One control animal, classified as moribund, was euthanized on Day 17 and was censored from analysis. Individual tumors were measured twice weekly in two dimensions using a caliper, and the tumor volumes (TV) in mm3 were calculated using the formula: TV=0.5 a×b2, where a and b are the long and short diameters in mm, respectively. Mean tumor volumes±SEM were calculated and plotted versus days of dosing (FIG. 14 left panel). Body weights were measured twice weekly. Body weights±SEM were calculated and plotted versus days of dosing (FIG. 14 right panel).
TGI was determined on Days 35 and 38 as (1−Difftreated/Diffcontrol)×100. The differences in median net tumor volumes on the days of TGI analysis for treated versus control animals were evaluated statistically using the non-parametric Kruskal-Wallis test followed by Dunn's multiple comparisons test. The reported adjusted p-values are for both days of TGI analysis where a calculated probability (p)≤0.05 was considered statistically significant.

ZR-75-1 = experiment: cell-proliferation assay (MTS), ZR-75-1; assay type: cell-based; conditions: ZR-75-1, human breast carcinoma, 168 hours
Procedure: Compound 1 was evaluated in in vitro cell-proliferation assays (BrdU assay, MTS assay, or Cell Titer Glo (CTG) assay) in multiple cancer cell lines and patient-derived organoid models to determine half-maximal inhibitory concentrations (IC50s).
Viability and BrdU thymidine incorporation assays were performed in multiwell plates seeded with cells in growth medium. After seeding, multiwell plates were cultured for 24 hours in a humidified incubator at 37° C. to promote adherence. […] The cultures were incubated for 168 hours after which the number of viable cells or the amount of thymidine incorporation in each test well was assessed by the methods as indicated above. Readouts were performed using an EnVision® Multilabel Reader (PerkinElmer, Waltham, MA) and the results were expressed as a percent of the negative control. Percent of Control values were plotted against the corresponding Compound 1 concentration and the relative IC50 value was determined from a non-linear regression curve as the concentration where inhibition was half-maximal. For cell lines where the number of IC50 determinations exceeded one, the IC50 was expressed as the mean IC50±SD.
Half-maximal inhibitory concentration (IC50) values for Compound 1 inhibition of cell proliferation were determined for nine cancer cell lines and one normal human fibroblastcell line.

[2] = tested on: COH70 patient-derived triple negative breast cancer xenograft; experiment: in vivo efficacy, COH70 patient-derived triple negative breast cancer xenograft model; conditions: COH70 TNBC PDX; for % TGI: Day 36; for Median Tumor Volumes Diff.: Day 36 minus Day 1
Procedure: as §1
The in vivo therapeutic efficacy and tolerability of Compound 1, administered orally as the free acid form in a PBS vehicle plus two equivalents of NaOH (final pH 10), was evaluated in a dose range study using the COH70 TNBC PDX model established in female NSG mice. Each mouse was inoculated subcutaneously in the abdomen with 2×10^6 COH70 tumor cells (0.2 ml) suspended in Matrigel. When the average tumor size reached ˜107 mm3, test animals were randomized into 5 groups consisting of 9 mice per group and treatments were initiated. Control mice received PBS (pH 10) vehicle PO QDx36. Treated mice received Compound 1 (dissolved in PBS+2 equivalents of NaOH, final pH 10) PO at 50, 40, 25, or 12.5 mg/kg QDx36. TGI was determined on Day 36 as (1−Difftreated/Diffcontrol)×100. Individual tumors were measured twice weekly in two dimensions using a caliper, and the tumor volumes (TV) in mm3 were calculated using the formula: TV=0.5 (l×w×h), where l, w, and h are the tumor length, width, and height in mm, respectively. Mean tumor volumes±SEM were calculated and plotted versus days of dosing (left panel). Body weights were measured twice weekly. Body weights±SEM were calculated and plotted versus days of dosing (right panel).

[3] = 15 mg/kg PO 3 on/4 off, 15 mg/kg
[4] = 22.5 mg/kg PO 2 on/5 off, 22.5 mg/kg
[5] = 50 mg/kg PO 3 on/4 off, 50 mg/kg

SMILES: CC(C)c1ccc(N(C)c2ccc3c(c2)OCC[C@H]3CNc2cnccc2C(=O)O)cc1 [Compound 1, 3-({[(4R)-7-{methyl[4-(propan-2-yl)phenyl]amino}-3,4-dihydro-2H-1-benzopyran-4-yl]methyl}amino)pyridine-4-carboxylic acid]
- tolerability (mean body weights) ([1]; female NMRI-Foxn1nu mice, all regimens): well-tolerated
- Median Tumor Volume Day 35 ([1]; female NMRI-Foxn1nu mice, lysine salt 5 mg/kg (free acid equivalents) PO 3 on/4 off): 391 mm^3
- Median Tumor Volume Day 35 ([1]; female NMRI-Foxn1nu mice, lysine salt 15 mg/kg (free acid equivalents) PO 3 on/4 off): 278 mm^3
- Median Tumor Volume Day 35 ([1]; female NMRI-Foxn1nu mice, lysine salt 22.5 mg/kg (free acid equivalents) PO 2 on/5 off): 447 mm^3
- Median Tumor Volume Day 35 ([1]; female NMRI-Foxn1nu mice, lysine salt 50 mg/kg (free acid equivalents) PO 3 on/4 off): 371 mm^3
- Median Tumor Volume Day 38 ([1]; 5 mg/kg PO 3 on/4 off): 460 mm^3
- % TGI (Day 35) ([1]; 5 mg/kg PO 3 on/4 off, 5 mg/kg): 52%
- Median Tumor Volume Diff. (Day 35) ([1]; 5 mg/kg PO 3 on/4 off): 282 mm^3
- % TGI (Day 38) ([1]; 5 mg/kg PO 3 on/4 off, 5 mg/kg): 43%
- Median Tumor Volume Diff. (Day 38) ([1]; 5 mg/kg PO 3 on/4 off): 351 mm^3
- Median Tumor Volume Day 38 ([1]; 15 mg/kg PO 3 on/4 off): 298 mm^3
- % TGI (Day 35) [1, 3]: 71%
- Median Tumor Volume Diff. (Day 35) ([1]; 15 mg/kg PO 3 on/4 off): 169 mm^3
- % TGI (Day 38) [1, 3]: 69%
- Median Tumor Volume Diff. (Day 38) ([1]; 15 mg/kg PO 3 on/4 off): 189 mm^3
- Median Tumor Volume Day 38 ([1]; 22.5 mg/kg PO 2 on/5 off): 470 mm^3
- % TGI (Day 35) [1, 4]: 42%
- Median Tumor Volume Diff. (Day 35) ([1]; 22.5 mg/kg PO 2 on/5 off): 338 mm^3
- % TGI (Day 38) [1, 4]: 41%
- Median Tumor Volume Diff. (Day 38) ([1]; 22.5 mg/kg PO 2 on/5 off): 361 mm^3
- Median Tumor Volume Day 38 ([1]; 50 mg/kg PO 3 on/4 off): 403 mm^3
- % TGI (Day 35) [1, 5]: 55%
- Median Tumor Volume Diff. (Day 35) ([1]; 50 mg/kg PO 3 on/4 off): 262 mm^3
- % TGI (Day 38) [1, 5]: 52%
- Median Tumor Volume Diff. (Day 38) ([1]; 50 mg/kg PO 3 on/4 off): 294 mm^3
- IC50 (ZR-75-1): > 10 µM
- tolerability (dose-dependent mean body weight changes) ([2]; female NSG mice, 12.5-50 mg/kg PO QD x36): well-tolerated
- mean body weight loss ([2]; female NSG mice, PO QD x36, over the course of the study): 6.5%
- Median Tumor Volumes Day 36 ([2]; female NSG mice, free acid 12.5 mg/kg PO QD x36): 685 mm^3
- Median Tumor Volumes Day 36 ([2]; female NSG mice, free acid 25 mg/kg PO QD x36): 524 mm^3
- Median Tumor Volumes Day 36 ([2]; female NSG mice, free acid 40 mg/kg PO QD x36): 282 mm^3
- Median Tumor Volumes Day 36 ([2]; female NSG mice, free acid 50 mg/kg PO QD x36): 295 mm^3
- % TGI ([2]; 12.5 mg/kg PO QD x36): 57%
- Median Tumor Volumes Diff. ([2]; 12.5 mg/kg PO QD x36): 581 mm^3
- % TGI ([2]; 25 mg/kg PO QD x36): 68%
- Median Tumor Volumes Diff. ([2]; 25 mg/kg PO QD x36): 424 mm^3
- % TGI ([2]; 40 mg/kg PO QD x36): 86%
- Median Tumor Volumes Diff. ([2]; 40 mg/kg PO QD x36): 184 mm^3
- % TGI ([2]; 50 mg/kg PO QD x36): 86%
- Median Tumor Volumes Diff. ([2]; 50 mg/kg PO QD x36): 191 mm^3
